The source of these data is patent publication EP0033789A1, “2-alpha-Methyl-dopaminimino-6,7-dihydroxy-1,2,3,4-tetrahydronaphthalene, its salts, and a process for preparation thereof” (priority 1980, dated 1981).

The structures appear in SMILES notation. Like-named read-outs stand apart in the source and are kept apart here.

The test system of this assay is anesthetized, open-chested dogs. Briefly: Inotropic, chronotropic and pressor/depressor activities in anesthetized, open-chested dogs (Walton-Brodie strain gauge, ventricular and aortic catheters). The assay is classed as in vivo. Particulars: for ED50 / ED (100% increase) / ED (150% increase) / ED (75% increase): Canis lupus familiaris; for ED50: read-out: Inotropic Potency CF50; for ED (100% increase): read-out: Inotropic Potency CF100; for ED (150% increase): read-out: Inotropic Potency dP/dt150; for Cardioselectivity: Change in diastolic blood pressure obtained at CF50 / Inotropic Selectivity: Change in heart rate obtained at CF50: at the dose giving 50% increase in cardiac contractile force; for Cardioselectivity: Change in diastolic blood pressure obtained at dP/dt75 / Inotropic Selectivity: Change in heart rate obtained at dP/dt75: at the dose giving 75% increase in left ventricular dP/dt; for Cardioselectivity: Change in diastolic blood pressure obtained at CF100 / Inotropic Selectivity: Change in heart rate obtained at CF100: at the dose giving 100% increase in cardiac contractile force; for Cardioselectivity: Change in diastolic blood pressure obtained at dP/dt150 / Inotropic Selectivity: Change in heart rate obtained at dP/dt150: at the dose giving 150% increase in left ventricular dP/dt; for ED (75% increase): read-out: Inotropic Potency dP/dt75. The method, then:
The following tests were conducted: • In anesthetized, open-chested dogs, instrumented with a Walton-Brodie strain gauge to measure cardiac contractile force, a ventricular catheter to measure left ventricular dP/dt and an aortic catheter to measure diastolic blood pressure and heart rate. Contractile force and L.V. dP/dt are indices of cardiac contractility and provide information on the inotropic state of the heart. The experimental standard drugs are compared by normalizing pressor/depressor and heart rate responses to a given inotropic effect. Cardioselective inotropic agents will produce minimal diastolic pressure changes for any given inotropic effect. Likewise, inotropic selective agents will produce minimal heart rate changes for any given inotropic effect.

The mark [1] stands for this setting: dose required to produce 50% increase in cardiac contractile force (CF), means ± SEM.
Where [2] appears, read: dose required to produce 100% increase in cardiac contractile force (CF), means ± SEM.
The mark [3] stands for this setting: dose required to produce 150% increase in left ventricular dP/dt, means ± SEM.
Where [4] appears, read: dose required to produce 75% increase in left ventricular dP/dt, means ± SEM.

For `CC(CCc1ccc(O)cc1)NCCc1ccc(O)c(O)c1` (racemic) [D, (±)-4-(2(3-p-hydroxyphenyl-1-methylpropyl)amino) ethyl-1,2-benzenediol], under setting [1], the ED50 amounted to 1.4 ± 0.2 µg/kg. Also, the ED (100% increase) under setting [2] is 4.4 µg/kg. Further, the ED (150% increase) under setting [3] amounted to 4 ± 0.6 µg/kg. For the setting “means ± SEM”, the “Cardioselectivity: Change in diastolic blood pressure obtained at CF50” value (“Cardioselectivity: Change … at CF50” for short) was found to be 3 ± 1 mm Hg, the “Inotropic Selectivity: Change in heart rate obtained at CF50” value (from here on “Inotropic Selectivity: Change … at CF50”) is recorded as 3 ± 1 BPM, the “Cardioselectivity: Change in diastolic blood pressure obtained at dP/dt75” value (“Cardioselectivity: Change … at dP/dt75” below) is reported as 4 ± 1 mm Hg and the “Inotropic Selectivity: Change in heart rate obtained at dP/dt75” value (“Inotropic Selectivity: Change … at dP/dt75” below) is recorded as 3 ± 1 BPM. Also, for the setting “means ± SEM”, the “Cardioselectivity: Change in diastolic blood pressure obtained at CF100” value (from here on “Cardioselectivity: Change … at CF100”) is 4 ± 3 mm Hg, the “Inotropic Selectivity: Change in heart rate obtained at CF100” value (shortened to “Inotropic Selectivity: Change … at CF100”) came to 17 ± 5 BPM, the “Cardioselectivity: Change in diastolic blood pressure obtained at dP/dt150” value (from here on “Cardioselectivity: Change … at dP/dt150”) worked out at 3 ± 3 mm Hg and the “Inotropic Selectivity: Change in heart rate obtained at dP/dt150” value (from here on “Inotropic Selectivity: Change … at dP/dt150”) worked out at 13 ± 2 BPM.

On to `COc1cc2c(cc1OC)CC(NC(C)CCc1ccc(O)cc1)CC2` (stereo not shown) [A, 2-(3-p-hydroxyphenyl-1-methylpropyl) amino-6,7-dimethoxy-1,2,3,4-tetrahydronaphthalene], for which, under setting [1], the ED50 came to 158 µg/kg. Moreover, the ED (75% increase) under setting [4] stood at 262 µg/kg. Also, the ED (100% increase) under setting [2] turned out to be 333 µg/kg. The ED (150% increase) under setting [3] amounted to 756 µg/kg. In addition, under “means ± SEM”, the “Cardioselectivity: Change … at CF50” value is listed as -17 mm Hg, the “Inotropic Selectivity: Change … at CF50” value was 5 BPM, the “Cardioselectivity: Change … at dP/dt75” value is reported as -23 mm Hg and the “Inotropic Selectivity: Change … at dP/dt75” value was found to be 10 BPM. Also, under “means ± SEM”, the “Cardioselectivity: Change … at CF100” value is listed as -27 mm Hg, the “Inotropic Selectivity: Change … at CF100” value was 14 BPM, the “Cardioselectivity: Change … at dP/dt150” value was -40 mm Hg and the “Inotropic Selectivity: Change … at dP/dt150” value is given as 27 BPM.

Regarding `CC(CCc1ccc(O)cc1)NC1CCc2cc(O)c(O)cc2C1` (stereo not shown) [B, 2-(3-p-hydroxyphenyl-1-methylpropyl) amino-6,7-dihydroxy-1,2,3,4-tetrahydronaphthalene], the ED50 under setting [1] is 56.3 µg/kg. For the same compound, the ED (75% increase) under setting [4] was determined as 125 µg/kg. The ED (100% increase) under setting [2] was 198 µg/kg. In addition, under setting [3], the ED (150% increase) was 359 µg/kg. For the setting “means ± SEM”, the “Cardioselectivity: Change … at CF50” value is on record as -13 mm Hg, the “Inotropic Selectivity: Change … at CF50” value is -17 BPM, the “Cardioselectivity: Change … at dP/dt75” value turned out to be 37 mm Hg and the “Inotropic Selectivity: Change … at dP/dt75” value came out at 0 BPM. Moreover, under “means ± SEM”, the “Cardioselectivity: Change … at CF100” value amounted to 57 mm Hg, the “Inotropic Selectivity: Change … at CF100” value came to 15 BPM, the “Cardioselectivity: Change … at dP/dt150” value was found to be 75 mm Hg and the “Inotropic Selectivity: Change … at dP/dt150” value is given as 32 BPM.

As to `NC1CCc2cc(O)c(O)cc2C1` (stereo not shown) [C, 2-amino-6,7-dihydroxy-1,2,3,4-tetrahydro-naphthalene], the ED50 was 44.9 ± 3.3 µg/kg, the ED (100% increase) worked out at 119 ± 34.7 µg/kg, the ED (75% increase) turned out to be 40.4 ± 3.1 µg/kg and the ED (150% increase) is 75.6 ± 5.8 µg/kg. Besides, where the note is “means ± SEM”, the “Cardioselectivity: Change … at CF50” value was found to be 31 ± 9 mm Hg, the “Inotropic Selectivity: Change … at CF50” value is on record as -12 ± 9 BPM, the “Cardioselectivity: Change … at dP/dt75” value was 30 + 5 mm Hg and the “Inotropic Selectivity: Change … at dP/dt75” value is listed as -12 ± 10 BPM. For the same compound, under “means ± SEM”, the “Cardioselectivity: Change … at CF100” value turned out to be 61 ± 10 mm Hg, the “Inotropic Selectivity: Change … at CF100” value was 21 ± 17 BPM, the “Cardioselectivity: Change … at dP/dt150” value came to 51 ± 5 mm Hg and the “Inotropic Selectivity: Change … at dP/dt150” value came out at 5 ± 8 BPM.

Take `NCCc1ccc(O)c(O)c1` [E, 4-(2-aminoethyl)-1,2-benzenediol]: the ED50 under setting [1] came to 9.1 ± 1 µg/kg. Besides, the ED (75% increase) under setting [4] stood at 9.9 ± 0.7 µg/kg. The ED (100% increase) under setting [2] turned out to be 19.6 ± 2.7 µg/kg. In addition, the ED (150% increase) under setting [3] turned out to be 23.7 ± 3 µg/kg. For the same compound, where the note is “means ± SEM”, the “Cardioselectivity: Change … at CF50” value is reported as -20 ± 6 mm Hg, the “Inotropic Selectivity: Change … at CF50” value is listed as 5 ± 5 BPM, the “Cardioselectivity: Change … at dP/dt75” value is on record as -20 ± 7 mm Hg and the “Inotropic Selectivity: Change … at dP/dt75” value was determined as 5 ± 6 BPM. For the same compound, where the note is “means ± SEM”, the “Cardioselectivity: Change … at CF100” value is listed as -12 ± 9 mm Hg, the “Inotropic Selectivity: Change … at CF100” value is given as 12 ± 5 BPM, the “Cardioselectivity: Change … at dP/dt150” value is given as -10 ± 8 mm Hg and the “Inotropic Selectivity: Change … at dP/dt150” value was 13 ± 6 BPM.

Regarding `CC(C)NCC(O)c1ccc(O)c(O)c1` (stereo not shown) [F, 4-(1-hydroxy-2-((1-methylethyl)-amino)ethyl)-1,2-benzenediol], under setting [4], the ED (75% increase) was determined as 0.04 ± 0.01 µg/kg. The ED (100% increase) under setting [2] came to 0.09 ± 0.02 µg/kg. Under setting [3], the ED (150% increase) was 0.14 ± 0.05 µg/kg. Also, for the setting “means ± SEM”, the “Cardioselectivity: Change … at CF50” value is given as -6 ± 2 mm Hg, the “Inotropic Selectivity: Change … at CF50” value was 14 ± 2 BPM, the “Cardioselectivity: Change … at dP/dt75” value is -6 ± 2 mm Hg and the “Inotropic Selectivity: Change … at dP/dt75” value turned out to be 14 ± 1 BPM. In addition, under “means ± SEM”, the “Cardioselectivity: Change … at CF100” value is reported as -15 ± 2 mm Hg, the “Inotropic Selectivity: Change … at CF100” value was determined as 34 ± 3 BPM, the “Cardioselectivity: Change … at dP/dt150” value is given as -16 ± 2 mm Hg and the “Inotropic Selectivity: Change … at dP/dt150” value is on record as 41 ± 5 BPM.
